For 19 compounds, MIC results are on record in ChEMBL document CHEMBL6109078, “Pyrylium derivatives as outer membrane permeabilizers against MDR gram-negative bacteria via multi-target mode of action” (Eur J Med Chem, 2025).

Type in all cases: functional
For experiment [1], the system named is Acinetobacter baumannii. Kind of experiment: Antibacterial activity against Acinetobacter baumannii ATCC 19606 assessed as inhibition of bacterial growth by CLSI protocol based method.
Experiment [2] has as its system Escherichia coli. Kind of experiment: Antibacterial activity against Escherichia coli ATCC 25922 assessed as inhibition of bacterial growth by CLSI protocol based method.
Experiment [3] has as its system Escherichia coli. Kind of experiment: Antibacterial activity against ESBL positive Escherichia coli ATCC 35218 assessed as inhibition of bacterial growth by CLSI protocol based method.
Experiment [4] has as its system Klebsiella pneumoniae. Kind of experiment: Antibacterial activity against Klebsiella pneumoniae ATCC 700603 assessed as inhibition of bacterial growth by CLSI protocol based method.
For experiment [5], the system named is Klebsiella pneumoniae. Kind of experiment: Antibacterial activity against Klebsiella pneumoniae BAA ATCC 1706 assessed as inhibition of bacterial growth by CLSI protocol based method.
Experiment [6] concerns Pseudomonas aeruginosa. The experiment in a line: Antibacterial activity Pseudomonas aeruginosa ATCC 27853 assessed as inhibition of bacterial growth by CLSI protocol based method.
Experiment [7] relates to Pseudomonas aeruginosa. The experiment in a line: Antibacterial activity Pseudomonas aeruginosa PAO1 assessed as inhibition of bacterial growth by CLSI protocol based method.

One may read the MIC as the lowest concentration found to suppress growth. Turning to `CCCN(CCC)c1ccc(/C=C/c2cc(C(C)(C)C)[o+]c(C(C)(C)C)c2)cc1.O=S(=O)([O-])C(F)(F)F`, the MIC in experiment [1], in experiment [2], in experiment [3], in experiment [4], in experiment [5] and in experiment [6] was > 100 µg/mL in each case. Also, in experiment [7], the MIC is > 100 µg/mL.

Take `CC(C)(C)c1cc(/C=C/c2ccc(N(CCCl)CCCl)cc2)cc(C(C)(C)C)[o+]1.O=S(=O)([O-])C(F)(F)F`: the MIC in experiment [1], in experiment [2], in experiment [3], in experiment [4], in experiment [5] and in experiment [6] was > 100 µg/mL in each case. Also, the minimum inhibitory concentration (MIC) in experiment [7] is > 100 µg/mL.

Regarding `CC(C)(C)c1cc(/C=C/c2ccc(N3CCOCC3)cc2)cc(C(C)(C)C)[o+]1.O=S(=O)([O-])C(F)(F)F`, the minimum inhibitory concentration (MIC) in experiment [1], in experiment [2], in experiment [3], in experiment [4], in experiment [5] and in experiment [6] was > 100 µg/mL throughout. Besides, the minimum inhibitory concentration (MIC) in experiment [7] is > 100 µg/mL.

As for `CCCCN(CCCC)c1ccc(/C=C/c2cc(C(C)(C)C)[o+]c(C(C)(C)C)c2)cc1.O=S(=O)([O-])C(F)(F)F`, the minimal inhibitory concentration (MIC) in experiment [1], in experiment [2], in experiment [3], in experiment [4], in experiment [5] and in experiment [6] was > 100 µg/mL in each case. The MIC in experiment [7] was > 100 µg/mL.

With `CCN(CCCl)c1ccc(/C=C/c2cc(C(C)(C)C)[o+]c(C(C)(C)C)c2)cc1.O=S(=O)([O-])C(F)(F)F`, the MIC in experiment [1], in experiment [2], in experiment [3], in experiment [4], in experiment [5] and in experiment [6] was > 100 µg/mL in each case. Moreover, the MIC in experiment [7] is > 100 µg/mL.

Turning to `CC(C)(C)c1cc(NC(=O)/C=C/C=C/c2ccccc2)cc(C(C)(C)C)c1`, the MIC in experiment [1], in experiment [2], in experiment [3], in experiment [4], in experiment [5] and in experiment [6] was > 100 µg/mL in each case. The minimum inhibitory concentration (MIC) in experiment [7] was > 100 µg/mL.

Regarding `CN(CCC#N)c1ccc(/C=C/c2cc(C(C)(C)C)[o+]c(C(C)(C)C)c2)cc1.O=S(=O)([O-])C(F)(F)F`, the minimal inhibitory concentration (MIC) in experiment [1], in experiment [2], in experiment [3], in experiment [4], in experiment [5] and in experiment [6] was > 100 µg/mL throughout. Besides, in experiment [7], the minimum inhibitory concentration (MIC) is > 100 µg/mL.

Regarding `COc1ccc(/C=C/c2cc(C(C)(C)C)[o+]c(C(C)(C)C)c2)c(Cl)c1.O=S(=O)([O-])C(F)(F)F`, the minimal inhibitory concentration (MIC) in experiment [1], in experiment [2], in experiment [3], in experiment [4], in experiment [5] and in experiment [6] was > 100 µg/mL in each case. Also, in experiment [7], the MIC was > 100 µg/mL.

Turning to `CC(C)(C)c1cc(/C=C/c2ccc(N(c3ccccc3)c3ccccc3)cc2)cc(C(C)(C)C)[o+]1.O=S(=O)([O-])C(F)(F)F`, the MIC in experiment [1], in experiment [2], in experiment [3], in experiment [4], in experiment [5] and in experiment [6] was > 100 µg/mL each time. The minimum inhibitory concentration (MIC) in experiment [7] is > 100 µg/mL.

`CN(C)c1ccc(/C=C/C=C/c2cc(C(C)(C)C)[o+]c(C(C)(C)C)c2)cc1.O=S(=O)([O-])C(F)(F)F`: the minimum inhibitory concentration (MIC) in experiment [1], in experiment [2], in experiment [3], in experiment [4], in experiment [5] and in experiment [6] was > 100 µg/mL each time. Further, the MIC in experiment [7] was > 100 µg/mL.

For the compound `CC(C)Oc1ccc(/C=C/c2cc(C(C)(C)C)[o+]c(C(C)(C)C)c2)cc1.O=S(=O)([O-])C(F)(F)F`, the MIC in experiment [1], in experiment [2], in experiment [3], in experiment [4], in experiment [5] and in experiment [6] was > 100 µg/mL each time. The MIC in experiment [7] is > 100 µg/mL.

Take `CC(=O)OCCN(CCOC(C)=O)c1ccc(/C=C/c2cc(C(C)(C)C)[o+]c(C(C)(C)C)c2)cc1.O=S(=O)([O-])C(F)(F)F`: the MIC in experiment [1], in experiment [2], in experiment [3], in experiment [4], in experiment [5] and in experiment [6] was > 100 µg/mL throughout. Moreover, the MIC in experiment [7] was > 100 µg/mL.

Regarding `Cn1c(=O)n(C)c2cc(/C=C/c3cc(C(C)(C)C)[o+]c(C(C)(C)C)c3)ccc21.O=S(=O)([O-])C(F)(F)F`, the minimal inhibitory concentration (MIC) in experiment [1], in experiment [2], in experiment [3], in experiment [4], in experiment [5] and in experiment [6] was > 100 µg/mL each time. Moreover, in experiment [7], the minimum inhibitory concentration (MIC) was > 100 µg/mL.

For the compound `CCn1c2ccccc2c2cc(/C=C/c3cc(C(C)(C)C)[o+]c(C(C)(C)C)c3)ccc21.O=S(=O)([O-])C(F)(F)F`, the MIC in experiment [1], in experiment [2], in experiment [3], in experiment [4], in experiment [5] and in experiment [6] was > 100 µg/mL throughout. For the same compound, the MIC in experiment [7] is > 100 µg/mL.

Regarding `CN(CCCl)c1ccc(/C=C/c2cc(C(C)(C)C)[o+]c(C(C)(C)C)c2)cc1.O=S(=O)([O-])C(F)(F)F`, the minimal inhibitory concentration (MIC) in experiment [1], in experiment [2], in experiment [3], in experiment [4], in experiment [5] and in experiment [6] was > 100 µg/mL each time. In experiment [7], the MIC is > 100 µg/mL.

Take `CC(C)(C)c1cc(NC(=O)/C=C/c2cc3ccccc3o2)cc(C(C)(C)C)c1`: the MIC in experiment [1], in experiment [2], in experiment [3], in experiment [4], in experiment [5] and in experiment [6] was > 100 µg/mL in each case. The minimum inhibitory concentration (MIC) in experiment [7] is > 100 µg/mL.

In the case of `CCOc1ccc(/C=C/c2cc(C(C)(C)C)[o+]c(C(C)(C)C)c2)cc1OC.O=S(=O)([O-])C(F)(F)F`, the minimal inhibitory concentration (MIC) in experiment [1], in experiment [2], in experiment [3], in experiment [4], in experiment [5] and in experiment [6] was > 100 µg/mL in each case. Besides, in experiment [7], the MIC is > 100 µg/mL.

Consider `CC(C)(C)c1cc(/C=C/c2ccc3c(c2)CCO3)cc(C(C)(C)C)[o+]1.O=S(=O)([O-])C(F)(F)F`, for which the minimal inhibitory concentration (MIC) in experiment [1], in experiment [2], in experiment [3], in experiment [4], in experiment [5] and in experiment [6] was > 100 µg/mL throughout. Besides, the MIC in experiment [7] was > 100 µg/mL.

Consider `CC(C)(C)c1cc(/C=C/c2ccc(N3CCCCC3)cc2)cc(C(C)(C)C)[o+]1.O=S(=O)([O-])C(F)(F)F`, for which the MIC in experiment [1] is 50 µg/mL; in experiment [2] it was > 100 µg/mL; in experiment [3], > 100 µg/mL; in experiment [4], > 100 µg/mL; in experiment [5], > 100 µg/mL; in experiment [6], > 100 µg/mL. In addition, in experiment [7], the MIC was > 100 µg/mL.
